Legend:
[1] = Simple acute toxicity test (intravenous injection); assay type: in vivo, male mice of ddY strain; details: i.v. (tail vein), ddY mice
Method: Example of Test 1 (Simple Acute Toxicity Test)
The simple acute toxicity test was carried out by an intravenous injection of compounds of the present invention.
Into the tail vein of male mice of ddY strain weighing 18~20 g which have been kept under the conditions at the temperature of 23°±1° C. and in the humidity of 55 ±7% were injected a solution of the compound of the present invention dissolved in the physiological saline containing the desired dose per 20 g body weighing 0.2 ml. Two dosages of which were 50 mg/kg and 500 mg/kg body weight were used.

passive Arthus reaction [2] = assay: Anti-inflammatory activity test: passive Arthus reaction (Example of Test 2); assay type: in vivo, male guinea pigs of the Hartley strain; details: Table 21, 30 min before antigen
Method: Example of Test 2 (Anti-inflammatory Activity Test)
(§1) Male guinea pigs of the Hartley strain weighing 200~250 g were used.
(2) Experimental Materials
(§2) The anti-ovalbumin rabbit serum (PCA titer=1/80,000) and ovalbumin were used as the antiserum and antigen, respectively.
(§3) The passive Arthus reaction was performed according to the method of Katayama et al. [Katayama, S. et al., Arzeim-Forsch., 31, 1196 (1981)]. That is, guinea pigs were sensitized by an intravenous injection of said anti-ovalbumin rabbit serum (2.5 ml/kg). Thirty minutes after the injection, the Arthus reaction was induced by the intradermal injection of an antigen solution (0.05 ml) containing 0.10 mg of ovalbumin to the abdomen shaved the day before. Two hours after the antigen challenge, the area of intradermal bleeding was measured and used as the index representing the grade of inflammatory reaction. Test compounds were intravenously injected 30 min before the antigen injection. Four guinea pigs per each group were used.
(§4) The percent inhibi- is expressed as the bleeding area of the challenged site (%) of the animal group injected with each compound relative to that (100%) of the group administered with the physiological saline.

passive Arthus reaction [3] = assay: Anti-inflammatory activity test, carried out as Example of Test 2 (Example of Test 3); assay type: in vivo, male guinea pigs of the Hartley strain; details: Table 22, i.v.
Method: as §1, §2, §3, §4
The anti-inflammatory activity test of compounds of the present invention was similarly carried out as in the case of Example of Test 2.

Compound | Mortality ([1]; 50 mg/kg) | Mortality ([1]; 500 mg/kg) | Percent inhibition (passive Arthus reaction) (passive Arthus reaction [2]; 1 mg/kg i.v.) [%] | Percent inhibition (passive Arthus reaction) (passive Arthus reaction [2]; 3 mg/kg i.v.) [%] | Percent inhibition (passive Arthus reaction) (passive Arthus reaction [2]; 1 mg/kg i.v., 1 mg/kg) [%] | Percent inhibition (passive Arthus reaction) (passive Arthus reaction [2]; 3 mg/kg i.v., 3 mg/kg) [%] | Percent inhibition (passive Arthus reaction) (passive Arthus reaction [3]; 0.01 mg/kg) [%] | Percent inhibition (passive Arthus reaction) (passive Arthus reaction [3]; 0.1 mg/kg) [%] | Percent inhibition (passive Arthus reaction) (passive Arthus reaction [3]; 1 mg/kg) [%] | Percent inhibition (passive Arthus reaction) (passive Arthus reaction [3]; 0.001 (unit of dose not given)) [%]
CCCOC1OC(CO)C(OC2OC(CO)C(O)C(OS(=O)(=O)[O-])C2O)C(OC2OC(C)C(O)C(O)C2O)C1NC(C)=O.[Na+] (stereo not drawn) [Compound 10] | 0/3 | 0/3 | 25.5 ± 17.4 | 64.8 ± 3.4 | – | – | – | – | – | –
CCCOC1OC(CO)C(OC2OC(CO)C(OS(=O)(=O)[O-])C(OS(=O)(=O)[O-])C2OS(=O)(=O)[O-])C(OC2OC(C)C(O)C(O)C2O)C1NC(C)=O.[Na+].[Na+].[Na+] (stereo not drawn) [Compound 12] | 0/3 | 0/3 | 45.3 ± 6.7 | 67.8 ± 5.2 | – | – | – | – | – | –
CCCOC1OC(CO)C(OC2OC(CO)C(O)C(OCC(=O)[O-])C2O)C(OC2OC(C)C(O)C(O)C2O)C1NC(C)=O.[Na+] (stereo not drawn) [Compound 17] | 0/3 | 0/3 | 45.5 ± 3.5 | 14.9 ± 14.5 | – | – | – | – | – | –
CCCOC1OC(CO)C(OC2OC(CO)C(O)C(OCC(=O)[O-])C2OCC(=O)[O-])C(OC2OC(C)C(O)C(O)C2O)C1NC(C)=O.[Na+].[Na+] (stereo not drawn) [Compound 18] | 0/3 | 0/3 | 75.7 ± 3.9 | 60.8 ± 9.8 | – | – | – | – | – | –
CCCOC1OC(CO)C(OC2OC(C)C(O)C(O)C2O)C(OC2OC(CO)C(O)C(OS(=O)(=O)[O-])C2O)C1NC(C)=O.[Na+] (stereo not drawn) [Compound 26] | 0/3 | 0/3 | 75.5 ± 1.6 | 77.3 ± 8.0 | – | – | – | – | – | –
CCCOC1OC(CO)C(OC2OC(C)C(O)C(O)C2O)C(OC2OC(CO)C(O)C(OCC(=O)[O-])C2O)C1NC(C)=O.[Na+] (stereo not drawn) [Compound 30] | 0/3 | 0/3 | 21.0 ± 5.9 | 15.4 ± 5.3 | – | – | – | – | – | –
CCCOC1OC(CO)C(OC2OC(C)C(O)C(O)C2O)C(OC2OC(CO)C(O)C(OCC(=O)[O-])C2OCC(=O)[O-])C1NC(C)=O.[Na+].[Na+] (stereo not drawn) [Compound 31] | 0/3 | 0/3 | 74.5 ± 6.7 | 15.9 ± 6.4 | – | – | – | – | – | –
CCCOC1OC(CO)C(OC2OC(C)C(O)C(O)C2O)C(OC2OC(CO)C(O)C(O)C2OCC(=O)[O-])C1NC(C)=O.[Na+] (stereo not drawn) [Compound 32] | 0/3 | 0/3 | 61.0 ± 4.2 | 57.4 ± 8.7 | – | – | – | – | – | –
CCCOC1OC(CO)C(OC2OC(CO)C(O)C(OC3(C(=O)[O-])CC(O)C(NC(C)=O)C(C(O)C(O)CO)O3)C2O)C(OC2OC(C)C(O)C(O)C2O)C1NC(C)=O.[Na+] (stereo not drawn) [Compound 40] | 0/3 | 0/3 | – | – | 47.3 ± 7.4 | 63.5 ± 8.3 | – | – | – | –
CCCCCCCCCCCCCCCCCCCCCCCC(=O)NC(COC1OC(CO)C(OC2OC(CO)C(O)C(OC3(C(=O)[O-])CC(O)C(NC(C)=O)C(C(O)C(O)CO)O3)C2O)C(OC2OC(C)C(O)C(O)C2O)C1NC(C)=O)C(O)CCCCCCCCCCCCCCC.[Na+] (stereo not drawn) [Compound 46] | 0/3 | 0/3 | 25.6 ± 11.3 | 74.4 ± 16.3 | – | – | – | – | – | –
CC(=O)NC1C(O)CC(OC2C(O)C(CO)OC(OC3C(CO)OC(OCC4OC(O)C(O)C(O)C4O)C(NC(C)=O)C3OC3OC(C)C(O)C(O)C3O)C2O)(C(=O)[O-])OC1C(O)C(O)CO.[Na+] (stereo not drawn) [Compound 53] | 0/3 | 0/3 | 44.8 ± 15.0 | 58.7 ± 9.5 | – | – | – | – | – | –
CC(=O)NC1C(O)CC(OC2C(O)C(CO)OC(OC3C(CO)OC(OC4C(O)C(O)OC(CO)C4O)C(NC(C)=O)C3OC3OC(C)C(O)C(O)C3O)C2O)(C(=O)[O-])OC1C(O)C(O)CO.[Na+] (stereo not drawn) [Compound 62] | 0/3 | 0/3 | 41.9 ± 8.9 | 57.4 ± 7.3 | – | – | – | – | – | –
CCCOC1OC(CO)C(OC2OC(C)C(O)C(O)C2O)C(OC2OC(CO)C(O)C(OC3(C(=O)[O-])CC(O)C(NC(C)=O)C(C(O)C(O)CO)O3)C2O)C1NC(C)=O.[Na+] (stereo not drawn) [Compound 90] | 0/3 | 0/3 | – | – | 65.4 ± 8.5 | 69.6 ± 6.3 | – | – | – | –
CCCOC1OC(CO)C(OC2OC(CO)C(O)C(OC3(C(=O)[O-])CC(O)C(NC(C)=O)C(C(O)C(O)CO)O3)C2O)C(OC2OC(C)C(O)C(O)C2O)C1NC(C)=O.[Na+] (stereo not drawn) [Compound 121] | 0/3 | 0/3 | – | – | 42.1 ± 8.3 | 59.8 ± 5.3 | – | – | – | –
CCCOC1OC(CO)C(OC2OC(C)C(O)C(O)C2O)C(OC2OC(CO)C(O)C(OC3(C(=O)[O-])CC(O)C(NC(C)=O)C(C(O)C(O)CO)O3)C2O)C1NC(C)=O.[Na+] (stereo not drawn) [Compound 123] | 0/3 | 0/3 | – | – | 76.8 ± 12.0 | 84.5 ± 5.1 | – | – | – | –
COc1ccc(OC2OC(CO)C(OC3OC(CO)C(O)C(OS(=O)(=O)[O-])C3OC(=O)C(C)(C)C)C(OC3OC(C)C(O)C(O)C3O)C2OC(=O)C(C)(C)C)cc1.[Na+] (stereo not drawn) [Compound 142] | – | – | – | – | – | – | -3.3 ± 2.7 | 57.6 ± 12.6 | 84.8 ± 4.6 | –
COc1ccc(OC2OC(CO)C(OC3OC(CO)C(O)C(OS(=O)(=O)[O-])C3O)C(OC3OC(C)C(O)C(O)C3O)C2O)cc1.[Na+] (stereo not drawn) [Compound 143] | – | – | – | – | – | – | 84.1 ± 5.2 | 52.5 ± 12.2 | 70.1 ± 1.8 | –
COc1ccc(OC2OC(CO)C(OC3OC(CO)C(OS(=O)(=O)[O-])C(O)C3O)C(OC3OC(C)C(O)C(O)C3O)C2O)cc1.[Na+] (stereo not drawn) [Compound 144] | – | – | – | – | – | – | -15.2 ± 6.7 | 22.0 ± 30.1 | 23.9 ± 14.7 | –
CCCOC1OC(CO)C(OC2OC(C)C(O)C(O)C2O)C(OC2OC(CO)C(O)C(O)C2OS(=O)(=O)[O-])C1NC(C)=O.[Na+] (stereo not drawn) [Compound 175] | – | – | – | – | – | – | 44.6 ± 20.1 | 62.5 ± 16.1 | 67.1 ± 4.4 | –
CCCOC1OC(CO)C(OC2OC(C)C(O)C(O)C2O)C(OC2OC(CO)C(OS(=O)(=O)[O-])C(OS(=O)(=O)[O-])C2OS(=O)(=O)[O-])C1NC(C)=O.[Na+].[Na+].[Na+] (stereo not drawn) [Compound 176] | – | – | – | – | – | – | 57.5 ± 14.7 | 83.9 ± 10.1 | 92.4 ± 3.8 | –
CCCOC1OC(CO)C(OC2OC(C)C(O)C(O)C2O)C(OC2OC(CO)C(O)C(O)C2OS(=O)(=O)[O-])C1NC(C)=O.[Na+] (stereo not drawn) [Compound 188] | – | – | – | – | – | – | 57.2 ± 14.5 | 86.2 ± 1.7 | – | 84.2 ± 5.4
CCCOC1OC(CO)C(OC2OC(C)C(O)C(O)C2O)C(OC2OC(CO)C(O)C(OS(=O)(=O)[O-])C2O)C1NC(C)=O.[Na+] (stereo not drawn) [Compound 189] | – | – | – | – | – | – | 73.6 ± 8.9 | 59.8 ± 9.7 | – | 90.9 ± 4.0
